Laboratory results from patent publication US20140194392A1 (priority 2013, published 2014).

Experiments:
[1] = tested on: Influenza A/TW/70058/09 (H1N1); assay: microbe, parasite or virus in culture; assay type: cell-based; settings: H1N1, read-out: EC50 on the inhibition of replication (viral plaque reduction assay)
[2] = tested on: Influenza A/TW/70066/09 (H1N1); assay: microbe, parasite or virus in culture; assay type: cell-based; settings: H1N1, read-out: EC50 on the inhibition of replication (viral plaque reduction assay)

Structure (SMILES): Nc1c(S(=O)(=O)O)cc(Nc2cccc(S(=O)(=O)CCOS(=O)(=O)O)c2)c2c1C(=O)c1ccccc1C2=O [RB19, remazol brilliant blue R]
- EC50 [1]: 9.8 µM
- EC50 [2]: 11.9 µM
